Patent US20230157996A1, “SMALL-MOLECULE INHIBITOR TARGETING EB VIRUS NUCLEAR ANTIGEN PROTEIN, PREPARATION METHOD AND USE THEREOF” (priority 2020, published 2023)

System: C666-1 cells
Test: C666-1 cell viability single concentration (50 μM) inhibition rate (Resazurin)
Assay type: cell-based
Conditions: 50 μM compound, 72 hours, C666-1 cells
Procedure, shortened: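 EBV-positive C666-1 cells (5×10^3/well), pre-cultured 24 h, were exposed to compound at 50 μmol/L final for 72 h at 37° C, 5% CO2, in duplicate. Viability by resazurin (3 h, ex 560/em 590 nm); inhibition rate computed relative to DMSO control and medium-only blank.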

In the case of `COC(=O)c1cccc(N2CC(Oc3ccccc3)C2)c1-n1cccc1` [Example 101, Methyl 3-(3-phenoxyazetidin-1-yl)-2-(1H-pyrrol-1-yl)benzoate], the “C666-1 cell viability single concentration (50 μM) inhibition rate, Ratio* (Inh %)” value is reported as “+++ (30%-50% +++)”.
In the case of `O=C([O-])c1cccc(N2CC(Oc3ccc([N+](=O)[O-])cc3)C2)c1-n1cccc1.[Na+]` [Example 116, Sodium 3-(3-(4-nitrophenoxy)azetidin-1-yl)-2-(1H-pyrrol-1-yl)benzoate], the “C666-1 cell viability single concentration (50 μM) inhibition rate, Ratio* (Inh %)” value is reported as “+ (*Inh %: <10% +)”.

Same assay, conditions: Homo sapiens, C6661, 72 h, 50 μM compound, 72 hours, C666-1 cells; read-out: C666-1 cell viability single concentration (50 μM) inhibition rate, Ratio* (Inh %)

First: O=C(O)c1cccc(N2CC(Oc3ccc(Cl)cc3)C2)c1-n1cccc1 [Compound 96, 3-(3-(4-chlorophenoxy)azetidin-1-yl)-2-(1H-pyrrol-1-yl)benzoic acid]
Second: CN(C)c1ccc(OC2CN(c3cccc(C(=O)O)c3-n3cccc3)C2)cc1 [Example 98, 3-(3-(4-(dimethylamino)phenoxy)azetidin-1-yl)-2-(1H-pyrrol-1-yl)benzoic acid]
The inhibition at 50 µM of the first is lower: < 10% for the first, 10 to 30% for the second.

Compared with `COC(=O)c1cccc(N2CC(Oc3ccc(N(C)C)cc3)C2)c1-n1cccc1` [Example 97, Methyl 3-(3-(4-(dimethylamino)phenoxy)azetidin-1-yl)-2-(1H-pyrrol-1-yl)benzoate], `COC(=O)c1cccc(N2CC(Oc3ccc(OC(C)C)cc3)C2)c1-n1cccc1` [Example 109, Methyl 3-(3-(4-isopropoxyphenoxy)azetidin-1-yl)-2-(1H-pyrrol-1-yl)benzoate] is lower in inhibition at 50 µM: 10 to 30% for the first, < 10% for the second.

`CCOc1ccc(OC2CN(c3cccc(C(=O)OC)c3-n3cccc3)C2)cc1` [Example 99, Methyl 3-(3-(4-ethoxyphenoxy)azetidin-1-yl)-2-(1H-pyrrol-1-yl)benzoate] and `CCCOc1ccc(OC2CN(c3cccc(C(=O)OC)c3-n3cccc3)C2)cc1` [Example 105, Methyl 3-(3-(4-propoxyphenoxy)azetidin-1-yl)-2-(1H-pyrrol-1-yl)benzoate] cannot be ordered by inhibition at 50 µM: < 10% for the first, < 10% for the second.

`CCOc1ccc(OC2CN(c3cccc(C(=O)O)c3-n3cccc3)C2)cc1` [Example 100, 3-(3-(4-ethoxyphenoxy)azetidin-1-yl)-2-(1H-pyrrol-1-yl)benzoic acid] and `CCCOc1ccc(OC2CN(c3cccc(C(=O)O)c3-n3cccc3)C2)cc1` [Example 106, 3-(3-(4-propoxyphenoxy)azetidin-1-yl)-2-(1H-pyrrol-1-yl)benzoic acid] cannot be ordered by inhibition at 50 µM: < 10% for the first, < 10% for the second.

`O=C(O)c1cccc(N2CC(Oc3ccccc3)C2)c1-n1cccc1` [Example 102, 3-(3-phenoxyazetidin-1-yl)-2-(1H-pyrrol-1-yl)benzoic acid] and `O=C(O)c1cccc(N2CC(Oc3ccc(Oc4ccccc4)cc3)C2)c1-n1cccc1` [Example 112, 3-(3-(4-phenoxyphenoxy)azetidin-1-yl)-2-(1H-pyrrol-1-yl)benzoic acid] cannot be ordered by inhibition at 50 µM: < 10% for the first, < 10% for the second.

First: COC(=O)c1cccc(N2CC(Oc3ccc4cc[nH]c4c3)C2)c1-n1cccc1 [Example 103, Methyl 3-(3-((1H-indol-6-yl)oxy)azetidin-1-yl)-2-(1H-pyrrol-1-yl)benzoate]
Second: O=C(O)c1cccc(N2CC(Oc3ccc4cc[nH]c4c3)C2)c1-n1cccc1 [Example 104, 3-(3-((1H-indol-6-yl)oxy)azetidin-1-yl)-2-(1H-pyrrol-1-yl)benzoic acid]
The inhibition at 50 µM of the first is higher: 10 to 30% for the first, < 10% for the second.

`CCCCOc1ccc(OC2CN(c3cccc(C(=O)OC)c3-n3cccc3)C2)cc1` [Example 107, Methyl 3-(3-(4-butoxyphenoxy)azetidin-1-yl)-2-(1H-pyrrol-1-yl)benzoate] and `CCCCOc1ccc(OC2CN(c3cccc(C(=O)O)c3-n3cccc3)C2)cc1` [Example 108, 3-(3-(4-butoxyphenoxy)azetidin-1-yl)-2-(1H-pyrrol-1-yl)benzoic acid] cannot be ordered by inhibition at 50 µM: < 10% for the first, < 10% for the second.

`CC(C)Oc1ccc(OC2CN(c3cccc(C(=O)O)c3-n3cccc3)C2)cc1` [Example 110, 3-(3-(4-isopropoxyphenoxy)azetidin-1-yl)-2-(1H-pyrrol-1-yl)benzoic acid] and `CC(=O)Nc1ccc(OC2CN(c3cccc(C(=O)O)c3-n3cccc3)C2)cc1` [Example 121, 3-(3-(4-acetylaminophenoxy)azetidin-1-yl)-2-(1H-pyrrol-1-yl)benzoic acid] cannot be ordered by inhibition at 50 µM: < 10% for the first, < 10% for the second.

Compared with `COC(=O)c1cccc(N2CC(Oc3ccc(Oc4ccccc4)cc3)C2)c1-n1cccc1` [Example 111, Methyl 3-(3-(4-phenoxyphenoxy)azetidin-1-yl)-2-(1H-pyrrol-1-yl)benzoate], `COC(=O)c1cccc(N2CC(Oc3ccc(COc4ccccc4)cc3)C2)c1-n1cccc1` [Example 114, Methyl 3-(3-(4-(phenoxymethyl)phenoxy)azetidin-1-yl)-2-(1H-pyrrol-1-yl)benzoate] is higher in inhibition at 50 µM: < 10% for the first, 10 to 30% for the second.

`COC(=O)c1cccc(N2CC(Oc3ccc(COC4CCOCC4)cc3)C2)c1-n1cccc1` [Example 113, Methyl 2-(1H-pyrrol-1-yl)-3-(3-(4-(((tetrahydro-2H-pyran-4-yl)oxy)methyl)phenoxy)azetidin-1-yl)benzoate] and `COC(=O)c1cccc(N2CC(Oc3ccc(NS(=O)(=O)C4CC4)cc3)C2)c1-n1cccc1` [Example 126, Methyl 3-(3-(4-(cyclopropylsulfonamido)phenoxy)azetidin-1-yl)-2-(1H-pyrrol-1-yl)benzoate] cannot be ordered by inhibition at 50 µM: > 50% for the first, > 50% for the second.

`O=C(O)c1cccc(N2CC(Oc3ccc(COc4ccccc4)cc3)C2)c1-n1cccc1` [Example 115, 3-(3-(4-(phenoxymethyl)phenoxy)azetidin-1-yl)-2-(1H-pyrrol-1-yl)benzoic acid] and `O=C(Nc1ccc(OC2CN(c3cccc(C(=O)O)c3-n3cccc3)C2)cc1)c1cccs1` [Example 123, 2-(1H-pyrrol-1-yl)-3-(3-(4-(thiophene-2-formamido)phenoxy)azetidin-1-yl)benzoic acid] cannot be ordered by inhibition at 50 µM: < 10% for the first, < 10% for the second.

First: CCCNC(=S)Nc1ccc(OC2CN(c3cccc(C(=O)OC)c3-n3cccc3)C2)cc1 [Example 117, Methyl 3-(3-(4-(3-propylthioureido)phenoxy)azetidin-1-yl)-2-(1H-pyrrol-1-yl)benzoate]
Second: CCCCCCNC(=O)Nc1ccc(OC2CN(c3cccc(C(=O)OC)c3-n3cccc3)C2)cc1 [Example 132, Methyl 3-(3-(4-(3-hexylureido)phenoxy)azetidin-1-yl)-2-(1H-pyrrol-1-yl)benzoate]
The inhibition at 50 µM of the first is higher: > 50% for the first, < 10% for the second.

Compared with `COC(=O)c1cccc(N2CC(Oc3ccc(NC(=S)Nc4ccc(C(F)(F)F)cc4)cc3)C2)c1-n1cccc1` [Example 118, Methyl 2-(1H-pyrrol-1-yl)-3-(3-(4-(3-(4-(trifluoromethyl)phenyl)thioureido)phenoxy)azetidin-1-yl)benzoate], `COC(=O)c1cccc(N2CC(Oc3ccc(NC(=O)Nc4ccc(Cl)cc4)cc3)C2)c1-n1cccc1` [Example 128, Methyl 3-(3-(4-(3-(4-chlorophenyl)ureido)phenoxy)azetidin-1-yl)-2-(1H-pyrrol-1-yl)benzoate] is lower in inhibition at 50 µM: > 50% for the first, < 10% for the second.

First: COC(=O)c1cccc(N2CC(Oc3ccc(NC(=S)Nc4ccccc4OC)cc3)C2)c1-n1cccc1 [Example 119, Methyl 3-(3-(4-(3-(2-methoxyphenyl)thioureido)phenoxy)azetidin-1-yl)-2-(1H-pyrrol-1-yl)benzoate]
Second: COC(=O)c1cccc(N2CC(Oc3ccc(NC(=O)Nc4cccc(Cl)c4)cc3)C2)c1-n1cccc1 [Example 133, Methyl 3-(3-(4-(3-(3-chlorophenyl)ureido)phenoxy)azetidin-1-yl)-2-(1H-pyrrol-1-yl)benzoate]
The inhibition at 50 µM of the first is lower: 10 to 30% for the first, > 50% for the second.

`COC(=O)c1cccc(N2CC(Oc3ccc(NC(C)=O)cc3)C2)c1-n1cccc1` [Example 120, Methyl 3-(3-(4-acetylaminophenoxy)azetidin-1-yl)-2-(1H-pyrrol-1-yl)benzoate] and `COC(=O)c1cccc(N2CC(Oc3ccc(NC(=O)c4cccs4)cc3)C2)c1-n1cccc1` [Example 122, Methyl 2-(1H-pyrrol-1-yl)-3-(3-(4-(thiophene-2-formamido)phenoxy)azetidin-1-yl)benzoate] fall in the same range of inhibition at 50 µM: 10 to 30% for the first, 10 to 30% for the second.

Compared with `COC(=O)c1cccc(N2CC(Oc3ccc(N(S(C)(=O)=O)S(C)(=O)=O)cc3)C2)c1-n1cccc1` [Example 124, Methyl 3-(3-(4-(N-(mesyl)methylsulfonamido)phenoxy)azetidin-1-yl)-2-(1H-pyrrol-1-yl)benzoate], `CS(=O)(=O)Nc1ccc(OC2CN(c3cccc(C(=O)O)c3-n3cccc3)C2)cc1` [Example 125, 3-(3-(4-(methylsulfonamido)phenoxy)azetidin-1-yl)-2-(1H-pyrrol-1-yl)benzoic acid] is lower in inhibition at 50 µM: 10 to 30% for the first, < 10% for the second.

`O=C(O)c1cccc(N2CC(Oc3ccc(NS(=O)(=O)C4CC4)cc3)C2)c1-n1cccc1` [Example 127, 3-(3-(4-(cyclopropylsulfonamido)phenoxy)azetidin-1-yl)-2-(1H-pyrrol-1-yl)benzoic acid] and `O=C(Nc1ccc(OC2CN(c3cccc(C(=O)O)c3-n3cccc3)C2)cc1)NC1CCCCC1` [Example 131, 3-(3-(4-(3-cyclohexylureido)phenoxy)azetidin-1-yl)-2-(1H-pyrrol-1-yl)benzoic acid] cannot be ordered by inhibition at 50 µM: < 10% for the first, < 10% for the second.

`O=C(Nc1ccc(Cl)cc1)Nc1ccc(OC2CN(c3cccc(C(=O)O)c3-n3cccc3)C2)cc1` [Example 129, 3-(3-(4-(3-(4-chlorophenyl)ureido)phenoxy)azetidin-1-yl)-2-(1H-pyrrol-1-yl)benzoic acid] and `COC(=O)c1cccc(N2CC(Oc3ccc(NC(=O)NC4CCCCC4)cc3)C2)c1-n1cccc1` [Example 130, Methyl 3-(3-(4-(3-cyclohexylureido)phenoxy)azetidin-1-yl)-2-(1H-pyrrol-1-yl)benzoate] cannot be ordered by inhibition at 50 µM: < 10% for the first, < 10% for the second.
